#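 Assay format: 96-well plates, 48-hour exposure. The concentration for 50% growth inhibition is given as GI50. TGI: total growth inhibition.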 Where a SMILES comes first, the peptide text is derived from it. [ ]: non-standard residue; d: D form. Phe(ol) = N[C@H](CO)Cc1ccccc1; dIva = CC[C@@](C)(N)C(=O)O; Aib = CC(C)(N)C(=O)O
# System: MDA-MB-468 breast
# Assay: NCI-60 cell line screen, 48 h
SMILES,GI50 [µM],TGI [µM]
Cc1sc(C(=O)c2cncnc2N[C@@H]2C[C@H](COS(N)(=O)=O)[C@@H](O)C2)cc1[C@@H]1NCCc2ccc(Cl)cc21,0.104,14.8
c1ccc(-c2[nH]ncc2-c2ccnc(-c3ccc(OCCN4CCOCC4)cc3)c2)nc1,> 25,> 25
CC[C@@](C)(NC(=O)C(C)(C)NC(=O)[C@@H](NC(=O)[C@@H]1CCCN1C(=O)C(C)(C)NC(=O)[C@H](CC(C)C)NC(=O)CNC(=O)C(C)(C)NC(=O)[C@@H](NC(=O)C(C)(C)NC(=O)[C@H](CCC(N)=O)NC(=O)[C@H](C)NC(=O)C(C)(C)NC(=O)[C@H](C)NC(=O)C(C)(C)NC(=O)[C@@H]1CCCN1C(=O)C(C)(C)NC(C)=O)C(C)C)C(C)C)C(=O)N[C@@H](CCC(N)=O)C(=O)N[C@@H](CCC(N)=O)C(=O)N[C@H](CO)Cc1ccccc1 (Ac-[Aib]P[Aib]A[Aib]AQ[Aib]V[Aib]GL[Aib]PV[Aib][dIva]QQ[Phe(ol)]),0.867,3.67
CC1=CC(=O)N(c2cccc3c(N4C(=O)C=C(C)C4=O)cccc23)C1=O,2.09,5.51
CN1CCC2(CC1)N=C(SCC(=O)Nc1cnc3ccccc3c1)C(c1ccc(Br)cc1)=N2,1.76,3.5
CN1CCN(CCCNC(=O)c2c3c(n4ccccc24)C(=O)c2ncccc2C3=O)CC1,0.637,1.86
NCCCNc1nc2ccccc2c2c(=O)c3cc(F)ccc3sc12,1.2,2.59
Cc1nc2sc(C(=O)Nc3cccc(Br)c3C)c(N)c2cc1C(O)c1ccccc1 (configuration not stated),0.0398,26
CCc1nc(C)cn1C(=O)OCc1nc2nc(Cl)nc(N3CCOCC3)c2[nH]1,0.925,2.46
CCOc1cc(-c2nncn2C)ccc1Nc1ncc2cc(C)nc(NCC(C)(C)C)c2n1,> 20.2,> 100
COc1ccc2c(C3=C(c4cn(C)c5ccccc45)C(=O)NC3=O)coc2c1,0.278,3.48
CCN(CC)C1Oc2cc3c(cc2C(c2cc(OC)c(O)c(OC)c2)C1C)OCO3 (configuration not stated),11.6,70.7
COC(=O)c1c[nH]c2cc(OC(C)C)c(OC(C)C)cc2c1=O,> 100,> 100
CC12OC(CC(O)C1O)n1c3ccccc3c3c4c(c5c6ccccc6n2c5c31)C(=O)N(CCN1CCOCC1)C4=O (configuration not stated),1.17,3.19
COc1cc(-c2nn(-c3ccc(NC(=O)Nc4cc(C(F)(F)F)cc(C(F)(F)F)c4)cc3)cc2-c2ccncc2)ccc1Cl,1.45,3.35
C[C@@H](Nc1cc(F)cc(F)c1)c1cc(C(=O)N(C)C)cc2c(=O)cc(N3CCOCC3)oc12,0.692,13.1
O=C(Nc1nc(-c2ccc(Cl)cc2)cs1)c1cc(O)c(O)c(O)c1,213,2290
CCN1CCN(c2nc(C)cc(NCc3cc(Nc4ccnc5cc(Cl)ccc45)ccc3F)n2)CC1,1.55,3.51
COc1ccc(OC)c(Nc2nc3nonc3nc2Nc2cccc(Br)c2)c1,0.343,3.88
O=C(/C=C/c1ccccc1)c1cccc2ccccc12,2,5.64
Cn1ncc(C#N)c1-c1ccc2c(c1)CN([C@H](CN)Cc1cccc(F)c1)C2=O,0.105,2.97
C=C1C(=O)O[C@H]2[C@H]1CC/C(COC(=O)c1cccnc1N)=C\CC[C@@]1(C)O[C@@H]21,0.958,4.18
Cc1ccc(N)cc1[As]=[As]c1cc(N)ccc1C (configuration not stated),0.243,0.944
CCCCC(=O)N(c1ccc(Nc2c3ccccc3nc3cc([N+](=O)[O-])ccc23)cc1)S(C)(=O)=O,0.433,5.7
Cn1c(CCCC(=O)O)nc2cc(N(CCCl)CCCl)ccc21,17.1,> 100
O=C(Oc1ccccc1)N(c1ccccc1)c1ccccc1,24,87.7

# — PubChem BioAssay (NCI)
